{
  "source": "patent US20260217735A1",
  "about": "“HETEROCYCLES AND USES THEREOF” (Kumquat Biosciences Inc., priority 2023, published 2026)",
  "key": {"KRAS G12V": {"biological_target": "T1, KRAS G12V (Homo sapiens, UniProt P01116, G12V)", "T1 construct": "made in house; host or cells: E. coli, e.g. BL21 (DE3)", "T1 sequence (P01116 1-188 isoform P01116-2 G12V)": "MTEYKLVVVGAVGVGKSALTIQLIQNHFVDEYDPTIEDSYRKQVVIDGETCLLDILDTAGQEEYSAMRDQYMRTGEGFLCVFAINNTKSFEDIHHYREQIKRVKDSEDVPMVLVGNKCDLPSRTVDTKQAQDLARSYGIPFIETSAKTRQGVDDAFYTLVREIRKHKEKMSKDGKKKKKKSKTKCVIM", "assay": "HTRF assay, KRAS G12V interaction with SOS1", "type": "biochemical", "details": "bins <500 nM / 500 nM to 1000 nM, read-out: Inhibition of KRAS G12V (IC50)"}, "MiaPaca2 cells": {"test_system": "MiaPaca2 cells", "assay": "Ras cellular assay, growth of cells with K-Ras G12C mutation", "type": "cell-based", "details": "Homo sapiens, MIA PaCa-2; cell proliferation assay; bins ≤500 nM / >500 nM; read-out: Inhibition of MiaPaca2 Cells (IC50)", "how_it_was_run": "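MIA PaCa-2 cells (K-Ras G12C, about 125-150 cells/well) grown in 0.25% soft agar over a 0.6% agar base, compound added on day 2 at 0.3% final DMSO. Growth read on day 10 by Cell Titer 96 AQueous absorbance (490 nm, reference 660 nm) against time-zero wells; IC50 from four-parameter fit.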"}, "KRAS G12D": {"biological_target": "T2, KRAS G12D (Homo sapiens, UniProt P01116, G12D)", "T2 construct": "made in house; host or cells: E. coli, e.g. BL21 (DE3)", "T2 sequence (P01116 1-188 isoform P01116-2 G12D)": "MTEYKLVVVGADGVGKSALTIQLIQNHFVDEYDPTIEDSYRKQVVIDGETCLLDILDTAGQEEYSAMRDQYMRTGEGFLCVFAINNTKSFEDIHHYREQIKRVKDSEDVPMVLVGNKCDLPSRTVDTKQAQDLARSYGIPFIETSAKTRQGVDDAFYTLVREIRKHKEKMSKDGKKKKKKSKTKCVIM", "assay": "HTRF assay, KRAS G12D interaction with SOS1", "type": "biochemical", "details": "bins <500 nM / 500 nM to 1000 nM, read-out: Inhibition of KRAS G12D (IC50)"}, "KRAS WT": {"biological_target": "T3, KRAS WT (Homo sapiens, UniProt P01116)", "T3 construct": "made in house; host or cells: E. coli, e.g. BL21 (DE3)", "T3 sequence (P01116 1-188 isoform P01116-2)": "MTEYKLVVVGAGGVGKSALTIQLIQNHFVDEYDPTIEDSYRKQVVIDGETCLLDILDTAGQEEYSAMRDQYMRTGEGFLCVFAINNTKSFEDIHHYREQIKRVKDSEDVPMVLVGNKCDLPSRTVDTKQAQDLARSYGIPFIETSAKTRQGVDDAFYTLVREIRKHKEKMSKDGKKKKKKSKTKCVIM", "assay": "HTRF assay, wildtype KRAS interaction with SOS1", "type": "biochemical", "details": "bins <500 nM / 500 nM to 1000 nM, read-out: Inhibition of KRAS WT (IC50)"}, "KRAS G12S": {"biological_target": "T4, KRAS G12S (Homo sapiens, UniProt P01116, G12S)", "T4 construct": "made in house; host or cells: E. coli, e.g. BL21 (DE3)", "T4 sequence (P01116 1-188 isoform P01116-2 G12S)": "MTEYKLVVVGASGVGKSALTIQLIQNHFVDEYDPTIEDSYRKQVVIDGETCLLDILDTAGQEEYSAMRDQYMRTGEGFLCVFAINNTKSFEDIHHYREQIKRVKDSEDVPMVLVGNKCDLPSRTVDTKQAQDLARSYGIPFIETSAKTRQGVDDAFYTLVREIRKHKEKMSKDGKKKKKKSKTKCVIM", "assay": "HTRF assay, KRAS G12S interaction with SOS1", "type": "biochemical", "details": "bins <500 nM / 500 nM to 1000 nM, read-out: Inhibition of KRAS G12S (IC50)"}},
  "data": [
    {"smiles": "C[C@@H]1[C@H](N(C)c2nc(OC[C@@]34CCCN3C[C@H](F)C4)nc3c(F)c(-c4ccc(F)c5sc(N)c(C#N)c45)c(Cl)cc23)CCN1C(=O)n1cccn1", "note": "[Compound 172, 2-amino-4-(6-chloro-8-fluoro-2-(((2R,7aS)-2-fluorotetrahydro-1H-pyrrolizin-7a(5H)-yl)methoxy)-4-(methyl((2R,3R)-2-methyl-1-(1H-pyrazole-1-carbonyl)pyrrolidin-3-yl)amino)quinazolin-7-yl)-7-fluorobenzo[b]thiophene-3-carbonitrile]", "values": [
      {"measurement": "IC50", "setting": "KRAS G12V", "result": "< 500", "unit": "nM"},
      {"measurement": "IC50", "setting": "MiaPaca2 cells", "result": "≤ 500", "unit": "nM"},
      {"measurement": "IC50", "setting": "KRAS G12D", "result": "< 500", "unit": "nM"},
      {"measurement": "IC50", "setting": "KRAS WT", "result": "< 500", "unit": "nM"},
      {"measurement": "IC50", "setting": "KRAS G12S", "result": "< 500", "unit": "nM"}
    ]},
    {"smiles": "CC[C@@H]1[C@H](N(CC)c2nc(OC[C@@]34CCCN3C[C@H](F)C4)nc3c(F)c(-c4ccc(F)c5sc(N)c(C#N)c45)c(Cl)cc23)CCN1C(=O)n1ccnc1", "note": "[Compound 173, 2-amino-4-(6-chloro-4-(ethyl((2R,3R)-2-ethyl-1-(1H-imidazole-1-carbonyl)pyrrolidin-3-yl)amino)-8-fluoro-2-(((2R,7aS)-2-fluorotetrahydro-1H-pyrrolizin-7a(5H)-yl)methoxy)quinazolin-7-yl)-7-fluorobenzo[b]thiophene-3-carbonitrile]", "values": [
      {"measurement": "IC50", "setting": "KRAS G12V", "result": "< 500", "unit": "nM"},
      {"measurement": "IC50", "setting": "MiaPaca2 cells", "result": "≤ 500", "unit": "nM"},
      {"measurement": "IC50", "setting": "KRAS G12D", "result": "< 500", "unit": "nM"},
      {"measurement": "IC50", "setting": "KRAS WT", "result": "< 500", "unit": "nM"},
      {"measurement": "IC50", "setting": "KRAS G12S", "result": "< 500", "unit": "nM"}
    ]},
    {"smiles": "Cc1ncn(C(=O)N2C[C@]3(CCCCN(c4nc(OC[C@@]56CCCN5C[C@H](F)C6)nc5c(F)c(-c6ccc(F)c7sc(N)c(C#N)c67)c(Cl)cc45)C3)[C@H]2C2(C)CC2)c1C", "note": "[Compound 174, 2-amino-4-(6-chloro-4-((1R,4R)-2-(4,5-dimethyl-1H-imidazole-1-carbonyl)-1-(1-methylcyclopropyl)-2,6-diazaspiro[3.6]decan-6-yl)-8-fluoro-2-(((2R,7aS)-2-fluorotetrahydro-1H-pyrrolizin-7a(5H)-yl)methoxy)quinazolin-7-yl)-7-fluorobenzo[b]thiophene-3-carbonitrile]", "values": [
      {"measurement": "IC50", "setting": "KRAS G12V", "result": "< 500", "unit": "nM"},
      {"measurement": "IC50", "setting": "MiaPaca2 cells", "result": "≤ 500", "unit": "nM"},
      {"measurement": "IC50", "setting": "KRAS G12D", "result": "< 500", "unit": "nM"},
      {"measurement": "IC50", "setting": "KRAS WT", "result": "< 500", "unit": "nM"},
      {"measurement": "IC50", "setting": "KRAS G12S", "result": "< 500", "unit": "nM"}
    ]},
    {"smiles": "CCN(c1nc(OC[C@@]23CCCN2C[C@H](F)C3)nc2c(F)c(-c3ccc(F)c4sc(N)c(C#N)c34)c(C3CC3)cc12)[C@@H]1CCN(C(=O)n2cnc(C)c2C)[C@@H]1C", "note": "[Compound 175, 2-amino-4-(6-cyclopropyl-4-(((2R,3R)-1-(4,5-dimethyl-1H-imidazole-1-carbonyl)-2-methylpyrrolidin-3-yl)(ethyl)amino)-8-fluoro-2-(((2R,7aS)-2-fluorotetrahydro-1H-pyrrolizin-7a(5H)-yl)methoxy)quinazolin-7-yl)-7-fluorobenzo[b]thiophene-3-carbonitrile]", "values": [
      {"measurement": "IC50", "setting": "KRAS G12V", "result": "< 500", "unit": "nM"},
      {"measurement": "IC50", "setting": "MiaPaca2 cells", "result": "≤ 500", "unit": "nM"},
      {"measurement": "IC50", "setting": "KRAS G12D", "result": "< 500", "unit": "nM"},
      {"measurement": "IC50", "setting": "KRAS WT", "result": "< 500", "unit": "nM"},
      {"measurement": "IC50", "setting": "KRAS G12S", "result": "< 500", "unit": "nM"}
    ]},
    {"smiles": "C[C@@H]1[C@H](N(C)c2nc(OC[C@@]34CCCN3C[C@H](F)C4)nc3c(F)c(-c4ccc(F)c5sc(N)c(C#N)c45)c(Cl)cc23)CCN1C(=O)n1ccnc1C#N", "note": "[Compound 176, 1-((2R,3R)-3-((7-(2-amino-3-cyano-7-fluorobenzo[b]thiophen-4-yl)-6-chloro-8-fluoro-2-(((2R,7aS)-2-fluorotetrahydro-1H-pyrrolizin-7a(5H)-yl)methoxy)quinazolin-4-yl)(methyl)amino)-2-methylpyrrolidine-1-carbonyl)-1H-imidazole-2-carbonitrile]", "values": [
      {"measurement": "IC50", "setting": "KRAS G12V", "result": "< 500", "unit": "nM"},
      {"measurement": "IC50", "setting": "MiaPaca2 cells", "result": "≤ 500", "unit": "nM"},
      {"measurement": "IC50", "setting": "KRAS G12D", "result": "< 500", "unit": "nM"},
      {"measurement": "IC50", "setting": "KRAS WT", "result": "< 500", "unit": "nM"},
      {"measurement": "IC50", "setting": "KRAS G12S", "result": "< 500", "unit": "nM"}
    ]},
    {"smiles": "CCN(c1nc(OC[C@@]23CCCN2C[C@H](F)C3)nc2c(F)c(-c3ccc(F)c4sc(N)c(C#N)c34)ncc12)[C@@H]1CCN(C(=O)n2cnc(Cl)n2)[C@@H]1C", "note": "[Compound 177, 2-amino-4-(4-(((2R,3R)-1-(3-chloro-1H-1,2,4-triazole-1-carbonyl)-2-methylpyrrolidin-3-yl)(ethyl)amino)-8-fluoro-2-(((2R,7aS)-2-fluorotetrahydro-1H-pyrrolizin-7a(5H)-yl)methoxy)pyrido[4,3-d]pyrimidin-7-yl)-7-fluorobenzo[b]thiophene-3-carbonitrile]", "values": [
      {"measurement": "IC50", "setting": "KRAS G12V", "result": "< 500", "unit": "nM"},
      {"measurement": "IC50", "setting": "MiaPaca2 cells", "result": "≤ 500", "unit": "nM"},
      {"measurement": "IC50", "setting": "KRAS G12D", "result": "< 500", "unit": "nM"},
      {"measurement": "IC50", "setting": "KRAS WT", "result": "< 500", "unit": "nM"},
      {"measurement": "IC50", "setting": "KRAS G12S", "result": "< 500", "unit": "nM"}
    ]}
  ]
}
